Laboratory results reported in DBAASP.
≈ marks a conversion by molar mass, not a printed value.

Key:
Assay in all cases: ≥ marks a high value that may be exact or a test limit, other limits are often not marked, values filed in µg/mL are converted to µM
[1] = system: Aeromonas caviae IP67-16T
[2] = system: Aspergillus fumigatus IP1025-70
[3] = system: Aspergillus niger IP218-53
[4] = system: Candida albicans IP884-65
[5] = system: Cryptococcus neoformans IP960-67
[6] = system: Enterococcus faecalis IP103214
[7] = system: Escherichia coli IP76-24
[8] = system: Nocardia brasiliensis IP16-80
[9] = system: Saccharomyces cerevisiae IP118079
[10] = system: Staphylococcus aureus IP76-25
[11] = system: Trichophyton simii IP1063-74
[12] = system: Enterococcus faecalis 981
[13] = system: Nocardia asteroides
[14] = system: Staphylococcus aureus ATCC 25923
[15] = system: Bacillus subtilis IFO 3134
[16] = system: Escherichia coli IFO 12734
[17] = system: Pseudomonas aeruginosa IFO 12582
[18] = system: Staphylococcus aureus IFO 12732
[19] = system: Aeromonas salmonicida 97-4
[20] = system: Aeromonas salmonicida 99-1
[21] = system: Candida albicans C627
[22] = system: Escherichia coli CGSC 4908
[23] = system: Escherichia coli DC2
[24] = system: Escherichia coli UB1005
[25] = system: Pseudomonas aeruginosa K799
[26] = system: Pseudomonas aeruginosa Z61
[27] = system: Salmonella enterica serovar typhimurium MS7953s
[28] = system: Salmonella enterica subsp. enterica serovar Typhimurium ATCC 14028s
[29] = system: Staphylococcus aureus C623
[30] = system: Staphylococcus epidermidis C621

| SMILES | MIC [1] [µM] | MIC [2] [µM] | MIC [3] [µM] | MIC [4] [µM] | MIC [5] [µM] | MIC [6] [µM] | MIC [7] [µM] | MIC [8] [µM] | MIC [9] [µM] | MIC [10] [µM] | MIC [11] [µM] | also measured |
| --- | --- | --- | --- | --- | --- | --- | --- | --- | --- | --- | --- | --- |
| CC[C@H](C)[C@H](NC(=O)CNC(=O)[C@H](CCCCN)NC(=O)[C@H](CC(C)C)NC(=O)[C@H](CCSC)NC(=O)[C@H](CC(N)=O)NC(=O)[C@H](CCCCN)NC(=O)[C@H](Cc1c[nH]c2ccccc12)NC(=O)[C@H](CC(C)C)NC(=O)[C@H](C)N)C(=O)NCC(=O)N[C@@H](CCCCN)C(=O)N[C@@H](CC(C)C)C(=O)N[C@@H](C)C(=O)NCC(=O)N[C@@H](CCCCN)C(=O)N[C@@H](C)C(=O)N[C@@H](C)C(=O)N[C@@H](CC(C)C)C(=O)NCC(N)=O [ALWKNMLKGIGKLAGKAALG] | 2 (≈ 4.08 µg/mL) | 15 (≈ 30.6 µg/mL) | 15 (≈ 30.6 µg/mL) | 4 (≈ 8.16 µg/mL) | 1 (≈ 2.04 µg/mL) | 2 (≈ 4.08 µg/mL) | 2 (≈ 4.08 µg/mL) | 30 (≈ 61.2 µg/mL) | 4 (≈ 8.16 µg/mL) | 8 (≈ 16.3 µg/mL) | 15 (≈ 30.6 µg/mL) |  |
| CC[C@H](C)[C@H](NC(=O)CNC(=O)[C@H](CCCCN)NC(=O)[C@H](CC(C)C)NC(=O)[C@H](CCSC)NC(=O)[C@H](CC(N)=O)NC(=O)[C@H](CCCCN)NC(=O)[C@H](Cc1c[nH]c2ccccc12)NC(=O)[C@H](CC(C)C)NC(=O)[C@H](C)N)C(=O)NCC(=O)N[C@@H](CCCCN)C(=O)N[C@@H](CC(C)C)C(=O)N[C@@H](C)C(=O)NCC(=O)N[C@@H](CCCCN)C(N)=O [ALWKNMLKGIGKLAGK] | 2 (≈ 3.45 µg/mL) | 8 (≈ 13.8 µg/mL) | 15 (≈ 25.9 µg/mL) | 8 (≈ 13.8 µg/mL) | 2 (≈ 3.45 µg/mL) | 2 (≈ 3.45 µg/mL) | 2 (≈ 3.45 µg/mL) | ≥ 70 | 4 (≈ 6.91 µg/mL) | ≥ 60 | 8 (≈ 13.8 µg/mL) |  |
| CC[C@H](C)[C@H](NC(=O)[C@H](CCCCN)NC(=O)[C@@H]1CCCN1C(=O)[C@H](CC(C)C)NC(=O)[C@H](CC(C)C)NC(=O)[C@H](CO)NC(=O)CNC(=O)[C@H](CC(C)C)NC(=O)[C@H](C)NC(=O)CNC(=O)[C@H](CC(C)C)NC(=O)[C@H](CC(C)C)NC(=O)[C@H](Cc1ccccc1)NC(=O)[C@@H]1CCCN1C(=O)[C@H](Cc1ccccc1)NC(=O)[C@@H](N)Cc1ccccc1)C(=O)N[C@@H](Cc1ccccc1)C(N)=O [FFPFLLGALGSLLPKIF] |  |  |  |  |  |  |  |  |  |  |  | MIC [12]: 25 µM (≈ 47 µg/mL); MIC [13]: 6.3 µM (≈ 11.8 µg/mL); MIC [14]: 12.5 µM (≈ 23.5 µg/mL) |
| CC[C@H](C)[C@H](NC(=O)[C@H](C)NC(=O)[C@@H]1CCCN1C(=O)[C@@H](NC(=O)[C@@H](NC(=O)[C@H](Cc1cnc[nH]1)NC(=O)[C@H](C)NC(=O)[C@H](C)NC(=O)[C@@H](NC(=O)[C@H](CCCCN)NC(=O)[C@H](C)NC(=O)[C@H](CC(C)C)NC(=O)[C@@H](NC(=O)CNC(=O)[C@H](Cc1ccccc1)NC(=O)CN)C(C)C)C(C)C)C(C)C)C(C)C)C(=O)N[C@@H](C)C(=O)N[C@@H](CCC(=O)O)C(=O)N[C@@H](Cc1cnc[nH]1)C(=O)N[C@@H](Cc1ccccc1)C(N)=O [GFGVLAKVAAHVVPAIAEHF] |  |  |  |  |  |  |  |  |  |  |  | MIC [15]: ≥ 64 µM; MIC [16]: ≥ 64 µM; MIC [17]: ≥ 64 µM; MIC [18]: ≥ 64 µM |
| CC[C@H](C)[C@H](NC(=O)[C@H](CCCNC(=N)N)NC(=O)[C@H](CCCNC(=N)N)NC(=O)[C@H](CC(C)C)NC(=O)[C@@H](N)Cc1c[nH]c2ccccc12)C(=O)NCC(=O)N[C@@H](CCCCN)C(=O)NCC(=O)N[C@H](C(=O)N[C@@H](CCCCN)C(=O)N[C@H](C(=O)N[C@H](C(=O)NCC(=O)NCC(=O)N[C@@H](C)C(=O)N[C@@H](C)C(=O)N[C@@H](CC(C)C)C(=O)N[C@@H](CC(=O)O)C(=O)N[C@@H](Cc1cnc[nH]1)C(=O)N[C@@H](CC(C)C)C(N)=O)[C@@H](C)CC)[C@@H](C)CC)C(C)C [WLRRIGKGVKIIGGAALDHL] |  |  |  |  |  |  |  |  |  |  |  | MIC [19]: ≥ 58.9 µM; MIC [20]: ≥ 58.9 µM; MIC [21]: 29.4 µM (≈ 64 µg/mL); MIC [22]: 29.4 µM (≈ 64 µg/mL); MIC [23]: 29.4 µM (≈ 64 µg/mL); MIC [24]: 29.4 µM (≈ 64 µg/mL); MIC [25]: 29.4 µM (≈ 64 µg/mL); MIC [26]: 14.7 µM (≈ 32 µg/mL); MIC [27]: 29.4 µM (≈ 64 µg/mL); MIC [28]: 29.4 µM (≈ 64 µg/mL); MIC [29]: 29.4 µM (≈ 64 µg/mL); MIC [30]: 29.4 µM (≈ 64 µg/mL) |
